Data as given in patent US11633416B1, “Oral formulations of CD73 compounds” (ARCUS BIOSCIENCES, INC., priority 2020, dated 2023).
Read-outs that look alike come from different tables or passages of the source. One block for each compound: values may come before it.

Key:
[1] = Oral exposure in cynomolgus monkeys, compound alone or with excipient in capsules; plasma by LC-MS/MS; format: in vivo; conditions: for Oral bioavailability using calcium chelating excipients: cynomolgus monkeys, capsules, versus compound alone
Source text: The influence of different excipients on the bioavailability of Compound (Ia), Compound 2 and Compound 3 in cynomolgus monkeys was investigated. The excipients tested were sodium phytate, sodium citrate, sodium EDTA, cyclodextrin, sodium taurocholate, sodium polystyrene sulfate, sodium caprate, sodium phosphate, carbomer 971P and palmitoyl carnitine chloride. Generally, an appropriate quantity (as indicated in Table 1) of Compound (Ia), Compound 2 or Compound 3 and an excipient were mixed to homogeneity and transferred to capsules for dosing. In one example, Compound (Ia) (500 mg assay, 1.063 correction factor applied for to account for purity) and 2.75 g of sodium phytate (Sigma) were combined in a mortar and pestle. The mixture was ground to homogeneity then 530 mg of the white powder was transferred to enteric capsules (Size 0) prior to dosing.
[…] Compound (Ia), Compound 2 or Compound 3, either alone, or with excipient, in an enteric capsule was administered via an oral pet piller. Blood samples were collected from a peripheral vessel at designated time points, and centrifuged to obtain plasma.
(§1) Plasma samples obtained at each time point from the subjects were prepared by protein precipitation. An aliquot of 50 μL sample was added with 150 μL acetonitrile containing an internal standard ([[[(2R,3S,4R,5R)-5-[6-chloro-4-[[(1S)-2,2,2-trideuterio-1-(2-fluorophenyl)ethyl]amino]pyrazolo[3,4-b]pyridin-1-yl]-3,4-dihydroxyoxolan-2-yl]-dideuteriomethoxy]-hydroxyphosphoryl]methylphosphonic acid, 200 ng/mL in Acetonitrile). The mixture was vortexed for 15 min and then centrifuged at 4500 rpm for 15 min at 4° C. (Sorvall Legend XTR centrifuge, Thermo Scientific, Langenselbold, Germany). 80 μL of the resulting supernatant was transferred into a new plate and mixed with 160 μL water followed by LC-MS/MS analysis.
(§2) • API 4000 mass spectrometer (Applied Biosystems, Foster City, Calif.) • Shimadzu Nexera X^2 UHPLC System (Shimadzu Scientific Instruments, Canby, Oreg.) Column: SHISEIDO CAPCELL PAK INERT ADME S3 (2.00 mm×50 mm, Part No. 79001) Mobile Phase A: 8.6 mM Triethylamine, 100 mM HFIP (1,1,1,3,3,3-Hexafluoro-2-propanol) in Water Mobile Phase B: 8.6 mM Triethylamine, and 100 mM HFIP in [Acetonitrile:water (95:5, v/v) Needle wash (weak & strong): Acetone:MeCN:Water (80:20:20, v/v/v) Flow Rate: 0.50 mL/min HPLC Gradient:
• Ionization Mode: Electrospray (ESI) • Detection Mode: Negative MRM (Q1/Q3 transitions: m/z 579.0/157.0 for Compound (Ia) or Compound 3; m/z 584.0/157.0 for Internal Standard); (Q1/Q3 transitions m/z 562.2/157.0 for Compound 2; m/z 584.0/157.0 for Internal Standard)

[2] = Oral bioavailability in male Sprague-Dawley rats, compound alone or with excipient in water pH 8 by oral gavage; plasma by LC-MS/MS; format: in vivo; conditions: for Bioavailability (% F): oral gavage
Method: The influence of different excipients on the bioavailability of Compound 2 was investigated in Sprague Dawley rats. The excipients tested were Solutol HS 15, soy L-α-phosphatidylcholine, trisodium citrate, sodium caprate, disodium EDTA, and sodium phytate. Generally, 10-30 mg of Compound 2 and the indicated quantity (Table 5) of excipient was combined and dissolved in 5 mL water. The pH was adjusted to a pH of 8 using HCl or NaOH as needed.
Male Sprague-Dawley rats, weighing between 0.27 to 0.32 kg, were fasted overnight prior to dose administration through approximately 4 hours post-dose. Compound 2 was administered orally by orogastric gavage at 5 mL/kg. Blood samples were collected via femoral vein at designated time points, and centrifuged to obtain plasma.
as §1, with “([(2R,3S,4R,5R)-5-[2-chloro-6-(cyclopentylmethylamino)purin-9-yl]-3,4-dihydroxyoxolan-2-yl]methoxymethylphosphonic” for “([[[(2R,3S,4R,5R)-5-[6-chloro-4-[[(1S)-2,2,2-trideuterio-1-(2-fluorophenyl)ethyl]amino]pyrazolo[3,4-b]pyridin-1-yl]-3,4-dihydroxyoxolan-2-yl]-dideuteriomethoxy]-hydroxyphosphoryl]methylphosphonic”
as §2, with “(1,1 1,3,3,3-Hexafluoro-2-propanol)” for “(1,1,1,3,3,3-Hexafluoro-2-propanol)”, “Acetone: MeCN: Water” for “Acetone:MeCN:Water”, “mL/min” for “mL/min HPLC Gradient:”
• Ionization Mode: Electrospray (ESI) • Detection Mode: Negative MRM (Q1/Q3 transitions: m/z 562.2/157.0 for Compound 2; m/z 584.0/157.0 for Internal Standard)

[3] = male, cynomolgus monkey, plasma, po, 50 mg, enteric capsule, with 195 mg sodium citrate, 3 mg SDS, fasted
[4] = male, cynomolgus monkey, plasma, po, 50 mg, enteric capsule, with 275 mg sodium phytate (Sigma-Aldrich, ≥5 mol sodium/mol), fasted
[5] = male, cynomolgus monkey, plasma, po, 50 mg, oral, enteric capsule, dose 50 mg, with 195 mg sodium citrate, 3 mg SDS, fasted, read-out: Cmax
[6] = male, cynomolgus monkey, plasma, po, 50 mg, oral, enteric capsule, dose 50 mg, with 275 mg sodium phytate (Sigma-Aldrich, ≥5 mol sodium/mol), fasted, read-out: Cmax
[7] = male, cynomolgus monkey, plasma, po, 50 mg, Table 3: dose 50 mg, dosed with 195 mg trisodium citrate and 3 mg SDS, enteric capsules
[8] = male, cynomolgus monkey, plasma, po, 50 mg, Table 3: dose 50 mg, dosed with 195 mg trisodium citrate and 3 mg SDS, enteric capsules, read-out: Cmax
[9] = male, cynomolgus monkey, plasma, po, 50 mg, Table 4: dose 50 mg, dosed with 275 mg sodium phytate, enteric capsules
[10] = male, cynomolgus monkey, plasma, po, 50 mg, Table 4: dose 50 mg, dosed with 275 mg sodium phytate, enteric capsules, read-out: Cmax
[11] = oral, enteric capsule, dose 50 mg, with 275 mg sodium phytate (Sigma-Aldrich, ≥5 mol sodium/mol), fasted

SMILES: C[C@H](Nc1nc(Cl)nc2c1cnn2[C@@H]1O[C@H](COP(=O)(O)CP(=O)(O)O)[C@@H](O)[C@H]1O)c1ccccc1 [2 (Na)]
AUC(0-inf) ([1]; male, cynomolgus monkey, plasma, po, 10 mg, enteric capsule, neat, fasted): 918 ng·h/mL
AUC(0-inf) ([1]; male, cynomolgus monkey, plasma, po, 10 mg, enteric capsule, with 195 mg sodium citrate, 3 mg SDS, fasted): 4880 ng·h/mL
AUC(0-inf) ([1]; male, cynomolgus monkey, plasma, po, 10 mg, enteric capsule, with 195 mg sodium citrate, fasted): 8840 ng·h/mL
AUC(0-inf) ([1]; male, cynomolgus monkey, plasma, po, 10 mg, enteric capsule, with 275 mg sodium phytate (Sigma-Aldrich), fasted): 6010 ng·h/mL
Cmax ([1]; male, cynomolgus monkey, plasma, po, 10 mg, oral, enteric capsule, dose 10 mg, neat, fasted, read-out: Cmax): 161 ng/mL
Cmax ([1]; male, cynomolgus monkey, plasma, po, 10 mg, oral, enteric capsule, dose 10 mg, with 195 mg sodium citrate, 3 mg SDS, fasted, read-out: Cmax): 997 ng/mL
Cmax ([1]; male, cynomolgus monkey, plasma, po, 10 mg, oral, enteric capsule, dose 10 mg, with 195 mg sodium citrate, fasted, read-out: Cmax): 791 ng/mL
Cmax ([1]; male, cynomolgus monkey, plasma, po, 10 mg, oral, enteric capsule, dose 10 mg, with 275 mg sodium phytate (Sigma-Aldrich), fasted, read-out: Cmax): 824 ng/mL
AUC(0-inf) [1, 3]: 67100 ng·h/mL
AUC(0-inf) [1, 4]: 105000 ng·h/mL
Cmax [1, 5]: 2530 ng/mL
Cmax [1, 6]: 2320 ng/mL
Exposure Enhancement ([1]; oral, enteric capsule, dose 10 mg, with 195 mg sodium citrate, 3 mg SDS, relative to 10 mg dose of 2(Na) without absorption enhancer): 5.3-fold^e
Exposure Enhancement ([1]; oral, enteric capsule, dose 10 mg, with 195 mg sodium citrate, relative to 10 mg dose of 2(Na) without absorption enhancer): 9.6-fold^e
Exposure Enhancement ([1]; oral, enteric capsule, dose 10 mg, with 275 mg sodium phytate (Sigma-Aldrich), relative to 10 mg dose of 2(Na) without absorption enhancer): 6.6-fold^e

SMILES: C[C@H](Nc1nc(Cl)nc2c1cnn2[C@@H]1O[C@H](COP(=O)(O)CP(=O)(O)O)[C@@H](O)[C@H]1O)c1ccccc1 [2 (Neutral)]
AUC(0-inf) ([1]; male, cynomolgus monkey, plasma, po, 50 mg, enteric capsule, with 195 mg sodium citrate, 6 mg sodium dodecyl sulfate (SDS), fasted): 129000 ng·h/mL
AUC(0-inf) ([1]; male, cynomolgus monkey, plasma, po, 50 mg, gelatin capsule, with 195 mg sodium citrate, 6 mg SDS, fasted): 151000 ng·h/mL
Cmax ([1]; male, cynomolgus monkey, plasma, po, 50 mg, oral, enteric capsule, dose 50 mg, with 195 mg sodium citrate, 6 mg sodium dodecyl sulfate (SDS), fasted, read-out: Cmax): 3140 ng/mL
Cmax ([1]; male, cynomolgus monkey, plasma, po, 50 mg, oral, gelatin capsule, dose 50 mg, with 195 mg sodium citrate, 6 mg SDS, fasted, read-out: Cmax): 3180 ng/mL

SMILES: C[C@H](Nc1nc(Cl)nc2c1cnn2[C@@H]1O[C@H](COP(=O)(O)CP(=O)(O)O)[C@@H](O)[C@H]1O)c1ccccc1 [Compound 2]
Oral bioavailability using calcium chelating excipients [1]: Improved
AUC(0-inf) [1, 7]: 67100 ng·h/mL
Cmax [1, 8]: 2530 ng/mL
AUC(0-inf) [1, 9]: 105000 ng·h/mL
Cmax [1, 10]: 2320 ng/mL
Oral bioavailability using calcium chelating excipients ([2]; SD rats, 10-30 mg/kg + excipient in water at pH 8 via oral gavage, 5 mL/kg): Improved
Bioavailability (% F) ([2]; 10 mg/kg, excipient: Sodium phytate (Sigma) 165 mg/SDS 2 mg): 2.0 % F
Bioavailability (% F) ([2]; 10 mg/kg, excipient: Sodium phytate (Sigma, ≥5 mol sodium/mol) 165 mg): 2.3 % F
Bioavailability (% F) ([2]; 10 mg/kg, excipient: Trisodium citrate 64.5 mg/sodium caprate 49 mg): 0.23 % F
Bioavailability (% F) ([2]; 30 mg/kg, excipient (mg/kg): Solutol HS 15, 1,500): 0.015 % F
Bioavailability (% F) ([2]; 30 mg/kg, excipient: Disodium EDTA 5 mg): 0.60 % F
Bioavailability (% F) ([2]; 30 mg/kg, excipient: Disodium EDTA 20 mg): 2.8 % F
Bioavailability (% F) ([2]; 30 mg/kg, excipient: None): 0.03 % F
Bioavailability (% F) ([2]; 30 mg/kg, excipient: Soy L-α-phosphatidylcholine 150 mg): 0.07 % F
Bioavailability (% F) ([2]; 30 mg/kg, excipient: Trisodium citrate 20 mg): 0.10 % F
Bioavailability (% F) ([2]; 30 mg/kg, excipient: Trisodium citrate 64.5 mg): 0.60 % F

Results, then the compound that gave them:

AUC(0-inf) [1, 3]: 38700 ng·h/mL
AUC(0-inf) [1, 4]: 149000 ng·h/mL
Cmax [1, 5]: 1320 ng/mL
Cmax [1, 6]: 3550 ng/mL
SMILES: C[C@H](Nc1cc(Cl)nc2c1cnn2[C@@H]1O[C@H](COP(=O)(O)CP(=O)(O)O)[C@@H](O)[C@H]1O)c1ccc(F)cc1 [3 ( 3Na)]

Oral bioavailability using calcium chelating excipients [1]: Improved
AUC(0-inf) [1, 7]: 38700 ng·h/mL
Cmax [1, 8]: 1320 ng/mL
AUC(0-inf) [1, 9]: 149000 ng·h/mL
Cmax [1, 10]: 3550 ng/mL
SMILES: C[C@H](Nc1cc(Cl)nc2c1cnn2[C@@H]1O[C@H](COP(=O)(O)CP(=O)(O)O)[C@@H](O)[C@H]1O)c1ccc(F)cc1 [Compound 3]

Oral bioavailability using calcium chelating excipients [1]: Improved
AUC(0-inf) [1, 7]: 22200 ng·h/mL
Cmax [1, 8]: 922 ng/mL
AUC(0-inf) [1, 9]: 122000 ng·h/mL
Cmax [1, 10]: 3680 ng/mL
SMILES: C[C@H](Nc1cc(Cl)nc2c1cnn2[C@@H]1O[C@H](COP(=O)(O)CP(=O)(O)O)[C@@H](O)[C@H]1O)c1ccccc1F [Compound (Ia), (((((2R,3S,4R,5R)-5-(6-chloro-4-(((S)-1-(2-fluorophenyl)ethyl)amino)-1H-pyrazolo[3,4-b]pyridin-1-yl)-3,4-dihydroxytetrahydrofuran-2-yl)methoxy)(hydroxy)phosphoryl)methyl)phosphonic acid]

Exposure Enhancement ([1]; oral, enteric capsule, dose 50 mg, with 275 mg sodium phytate (Sigma-Aldrich), relative to 50 mg Ia ( 3Na) without absorption enhancer): 7.6-fold^b
AUC0-∞ [1, 11]: 102,000 h*ng/mL
Cmax [1, 11]: 2,790 ng/mL
SMILES: C[C@H](Nc1cc(Cl)nc2c1cnn2[C@@H]1O[C@H](COP(=O)(O)CP(=O)(O)O)[C@@H](O)[C@H]1O)c1ccccc1F [Ia (Neutral), (((((2R,3S,4R,5R)-5-(6-chloro-4-(((S)-1-(2-fluorophenyl)ethyl)amino)-1H-pyrazolo[3,4-b]pyridin-1-yl)-3,4-dihydroxytetrahydrofuran-2-yl)methoxy)(hydroxy)phosphoryl)methyl)phosphonic acid]
